These results are taken from paper PMC12040169 (PLOS Biology, 2025).

The series is described as follows: in vitro. As to conditions: human, hela cells, % viability.

As for `CC(Oc1ccccc1Br)c1nc(-c2nonc2N)no1` (stereo not shown) [CBK026982], the viability at 28.5 h, 10 µM turned out to be 86.2%.
As for `O=C(CC1SC(NC2CCCCCC2)=NC1=O)NCc1c(F)cccc1Cl` (stereo not shown) [CBK067656], the viability at 28.5 h, 10 µM was determined as 89.7%.
Consider `CC(=O)N1CCc2c([nH]c3c(C)cccc23)C12CCN(CCOc1ccccc1)C2` (stereo not shown) [CBK039646], for which the viability at 28.5 h, 10 µM stood at 85.4%.
For `CN1CCC(Cc2nc(CC3CCCOC3)n(CC(F)(F)F)n2)CC1` (stereo not shown) [CBK306801], the viability at 28.5 h, 10 µM stood at 83.2%.
For the compound `Cc1ccccc1-c1cnc(N)c(-c2ccc(O)cc2)n1` [CBK115544], the viability at 28.5 h, 10 µM came to 95%.
For `N=C1NC(=O)/C(=C\c2cccc(C(=O)O)c2)S1` [CBK264832], the viability at 28.5 h, 10 µM turned out to be 97.6%.
Still for that read-out and setting: the same measure for `CN(Cc1ccc(O)cc1)C(=O)NC1CCCc2c1cnn2CCO` (stereo not shown) [CBK305354]: 86.3%.
With `Cc1cnn(CC(=O)N2CCCC(COc3ccccc3F)C2)c1` (stereo not shown) [CBK281999], the viability at 28.5 h, 10 µM was determined as 102%.
Turning to `CC(C)(C)OC(=O)NCc1ccc2cccc(OCCO)c2n1` [CBK000585], the viability at 28.5 h, 10 µM was determined as 83.3%.
For the compound `O=C1CCCN1CCCNc1ncnc2c1cnn2-c1ccc(Cl)cc1` [CBK265838], the viability at 28.5 h, 10 µM was 97.1%.
With `NC1CC(c2cc(NCCOc3ccccc3Cl)ncn2)C1` (stereo not shown) [CBK307167], the viability at 28.5 h, 10 µM is 73.7%.
For the compound `c1ccc(C2(CN3CCN(Cc4cccnc4)CC3)CC2)cc1` [CBK282793], the viability at 28.5 h, 10 µM was 117%.
Turning to `CSCCCNC(=O)N1CCN(Cc2ccccc2)CC1` [CBK155623], the viability at 28.5 h, 10 µM came to 89.9%.
For `CCN(CC)CCN(C)Cc1ccccc1Br` [CBK026593], the viability at 28.5 h, 10 µM was 92.8%.
As for `O=C(c1ccccc1F)N1C[C@H](c2ccsc2)[C@H]2CN(Cc3cccs3)CC[C@H]21` [CBK285657], the viability at 28.5 h, 10 µM was determined as 94.8%.
Take `O=C1c2ccccc2C(=O)N1CCCN1CCN(CCCN2C(=O)c3ccccc3C2=O)CC1` [CBK260963]: the viability at 28.5 h, 10 µM is 91.6%.
Turning to `Cc1ccc(SCCCCn2cnc3ccccc32)cc1` [CBK267801G], the viability at 28.5 h, 10 µM turned out to be 103%.
With `COC(=O)C(CCSC)NC(=O)c1cccs1` (stereo not shown) [CBK057972], the viability at 28.5 h, 10 µM is 94%.
In the case of `O=C(NNC(=O)C(O)c1ccccc1)NC1CCCCC1` (stereo not shown) [CBK262625], the viability at 28.5 h, 10 µM amounted to 106%.
For `CCCN(C)Cc1ccc(-c2nnn(CC(=O)NCc3ccc(CC)cc3)n2)cc1NC(C)=O` [CBK164703], the viability at 28.5 h, 10 µM amounted to 105%.
Take `COC(=O)CO[C@@H]1CO[C@H]2[C@@H]1OC[C@@H]2NC(=S)Nc1ccccc1` [CBK289459]: the viability at 28.5 h, 10 µM was determined as 88.3%.
Regarding `Cc1cc(NS(=O)(=O)c2cccc(C(F)(F)F)c2)n(C)n1` [CBK067244], the viability at 28.5 h, 10 µM was 94.1%.
Regarding `CNC(=O)c1cc(NC(=O)NCC2CC(=O)N(CCOC)C2)ccc1F` (stereo not shown) [CBK304403], the viability at 28.5 h, 10 µM is 107%.
On to `CCn1cc(-c2cncn2CCOc2ccc(Cl)cc2)cn1` [CBK281776], for which the viability at 28.5 h, 10 µM was 81.8%.
For `Cc1nc(C)c(C(=O)Nc2ccccc2-c2ccc3c(c2)COC2(CCNCC2)O3)s1` [CBK107628], for the setting “bulk resorufin, single well”, the viability at 28.5 h, 10 µM worked out at 96.8%.
On to `O=C(Cc1cc(F)cc(F)c1F)Nc1cccc2[nH]ccc12` [CBK159650], for which the viability at 28.5 h, 10 µM came to 89%.
Regarding `CCC(C)NC(=O)CN1CCN(Cn2nnc3ccccc3c2=O)CC1` (stereo not shown) [CBK305032], the viability at 28.5 h, 10 µM was 100%.
In the case of `CC1CCCN(CC(O)c2ccc3c(c2)CC(C)N3C(=O)C2CC2)C1` (stereo not shown) [CBK282125], the viability at 28.5 h, 10 µM turned out to be 99.2%.
The same measure, in the same setting: the value for `O=C(O)c1ccc(NS(=O)(=O)c2ccccc2)cc1O` [CBK023181] was 96.1%; that for `Cc1ccc(CSCCNS(=O)(=O)c2cccc([N+](=O)[O-])c2)cc1` [CBK267864] was 108%; that for `O=C(Nc1nc2n(n1)C(c1ccc(F)cc1)CC(c1ccccc1)N2)c1cccnc1` (stereo not shown) [CBK267953] was 88.9%.
Turning to `COCCN(Cc1cnn(C)c1)C(=O)Cc1coc2cc(C)c(Cl)cc12` [CBK307435], the viability at 28.5 h, 10 µM is 108%.
Consider `COc1cncc(-c2ccc(N3CCN(c4ccccc4C#N)CC3)nc2)c1` [CBK037738], for which the viability at 28.5 h, 10 µM came to 107%.
Regarding `CC(C)C[C@@H]1N[C@H](C(=O)NC2CC2)Cc2cn(Cc3nccn3C)c3cccc1c23` [CBK289423], the viability at 28.5 h, 10 µM came to 108%.
Take `CCCCCOc1ccc(Nc2ccc(-c3cccc(Cl)c3Cl)cn2)cc1` [CBK036856]: the viability at 28.5 h, 10 µM amounted to 111%.
Regarding `CN(CC(=O)O)C(=O)OCc1ccccc1` [CBK012752], the viability at 28.5 h, 10 µM was 101%.
The same measure, in the same setting: the same measure for `Cc1csc(C(Cc2cccs2)NC(=O)Cc2c(C)[nH]c(=O)[nH]c2=O)n1` (stereo not shown) [CBK286345]: 89.7%; for `COc1ccc(C(C)NC(=O)CCn2ccc3ccncc32)cc1` (stereo not shown) [CBK284798]: 92.4%.
Consider `c1cn2cnnc2c(N2CCc3sccc3C2)n1` [CBK305180], for which the viability at 28.5 h, 10 µM was found to be 96.6%.
Take `Cc1ccc2nc(NC(=O)COc3ccccc3)sc2c1` [CBK287335]: the viability at 28.5 h, 10 µM came out at 91%.
As to `CCN1CCN(Cc2ccc(OC)c(OCc3ccccc3)c2)CC1` [CBK261910], the viability at 28.5 h, 10 µM is 89.4%.
On to `COc1cccc2ccn(S(=O)(=O)c3ccsc3C(=O)O)c12` [CBK003636], for which the viability at 28.5 h, 10 µM was found to be 96.1%.
For the compound `Cc1cc2cc(F)ccc2n1CCCN1CCN(c2ccncc2)CC1` [CBK039119G], the viability at 28.5 h, 10 µM came to 116%.
On the same count and under the same terms, the same measure for `Cc1ccc(NC(=O)Cc2cn(C)c3ccccc23)c(C)n1` [CBK200298]: 61.9%.
Still for that read-out and setting: the value for `CCC1CCc2c(sc(NC(=O)C3C4CCC(C4=C(C)C)C3C(=O)O)c2C(=O)OC)C1` (stereo not shown) [CBK265424] was 102%; that for `FC(F)(F)c1ccc2c(c1)N(CCCN1CCN(C34CC5CC(CC(C5)C3)C4)CC1)c1ccccc1S2` [CBK261938] was 102%; that for `CN(CC(=O)NNC(=O)c1cccs1)S(=O)(=O)c1ccc2ccccc2c1` [CBK267409] was 90.8%.
Consider `COc1ccc2c(c1)C1(CC(=O)N(Cc3ccccc3)C1=O)C(=O)N2CCn1cnc2c1c(=O)n(C)c(=O)n2C` (stereo not shown) [CBK075478], for which the viability at 28.5 h, 10 µM was determined as 93.5%.
For `CCc1cc(-c2n[nH]cc2-c2nc(C)cs2)c(O)cc1OC` [CBK287934], the viability at 28.5 h, 10 µM was 103%.
In the case of `O=C(O)c1ccc(Cl)c2c1C1C=CCC1C(c1ccccn1)N2` (stereo not shown) [CBK287087], the viability at 28.5 h, 10 µM was 86.9%.
The same measure, in the same setting: the same measure for `OCCCNc1cc(Nc2ccccc2)n2nccc2n1` [CBK037078]: 102%; for `Cc1nn(C)cc1CN(CCCn1ccnc1)Cc1cccc(F)c1` [CBK283098]: 92.3%.
With `COc1cccc2sc(NC(=O)c3ccc4occc4c3)nc12` [CBK149278], the viability at 28.5 h, 10 µM was 96.8%.
Same read-out and setting: the value for `CCC(CO)Nc1cncc(-c2cc(C(C)C)ccc2OC)n1` (stereo not shown) [CBK065743] was 91.7%; that for `CCCCCC(=O)Nc1c(C)cc(Br)cc1C` [CBK058159] was 116%.
On the same count and under the same terms, the value for `Cc1nc(CC(=O)Nc2ccc(N3CCOCC3)cn2)cs1` [CBK305251] was 91%.
Regarding `Cc1ccc(-n2c(SCC(=O)Nc3sc4c(c3C#N)CCCC4)nnc2-c2ccccc2O)c(C)c1` [CBK268692], the viability at 28.5 h, 10 µM is 77.9%.
With `COc1ccc([N+](=O)[O-])cc1NC(=O)CSCc1ccc(Br)cc1` [CBK268272], the viability at 28.5 h, 10 µM is 90.9%.
In the case of `O=C(NCc1ccc(Cl)cc1)C1CCCN1c1nc(O)cc(C(F)(F)F)n1` (stereo not shown) [CBK003706], the viability at 28.5 h, 10 µM is 115%.
As to `Nc1nonc1-n1nnc(C(=O)N/N=C/c2ccc([N+](=O)[O-])cc2)c1-c1ccccc1` [CBK261992], the viability at 28.5 h, 10 µM turned out to be 86.4%.
In the case of `CCOC(=O)C1(Cc2ccc(F)cc2F)CCCN(S(=O)(=O)CC)C1` (stereo not shown) [CBK307655], the viability at 28.5 h, 10 µM came to 92.6%.
For `COc1ccc(NC(=O)Nc2ccccc2C(N)=O)cc1OC` [CBK267061], the viability at 28.5 h, 10 µM came out at 94.1%.
On to `CC1CC(=O)C2C=C(c3ccc(Br)cc3)NN=C2C1` (stereo not shown) [CBK021352], for which the viability at 28.5 h, 10 µM worked out at 91.8%.
With `O=C(Nc1sc2c(c1C(=O)NCc1cccnc1)CCCC2)c1sc2ccccc2c1Cl` [CBK266334], the viability at 28.5 h, 10 µM is 95.9%.
In the case of `COc1ccc(CSCC(N)C(=O)O)cc1Br` (stereo not shown) [CBK264026], the viability at 28.5 h, 10 µM amounted to 94%.
For `COc1ccc(C(=O)NCC(=O)NCCOC(=O)c2c(-c3c(F)cccc3Cl)noc2C)cc1` [CBK007386], the viability at 28.5 h, 10 µM is 99.4%.
Turning to `COc1ccc(Nc2cc(-c3ccc(CNC(=O)OC(C)(C)C)cc3)ncn2)c(OC)c1` [CBK090757], the viability at 28.5 h, 10 µM was 90.8%.
Take `COc1cc(-c2cnc3[nH]c(=O)n(C4CCOCC4)c3n2)cc(OC)c1OC` [CBK064255]: the viability at 28.5 h, 10 µM was 94.6%.
As to `COc1ccc(Cc2nc(-c3ccccc3)c3ccccc3n2)cc1F` [CBK291176], the viability at 28.5 h, 10 µM came to 80.2%.
With `COC[C@@H]1CCCN1S(=O)(=O)c1ccc(Cl)c(Cl)c1` [CBK044313], the viability at 28.5 h, 10 µM is 91.3%.
The same measure, in the same setting: the value for `COc1ccc(C(C)C)cc1-c1nccnc1NCC1COC(C)(C)O1` (stereo not shown) [CBK036930] was 101%; that for `O=C(Nc1ccc(O)cc1C(=O)O)c1ccc2c(c1)C(=O)N(Cc1ccco1)C2=O` [CBK267418] was 103%.
Regarding `O=C(Cn1cc(C(=O)NC2CCCC2)ccc1=O)NCC1(c2ccccc2)CCCC1` [CBK286248], the viability at 28.5 h, 10 µM stood at 94.7%.
For the compound `Cc1ccc(CS(=O)(=O)N(CC(C)C)C2CC2)c(F)c1` [CBK306460], the viability at 28.5 h, 10 µM stood at 82.9%.
Take `CCCc1[nH]n(CC(=O)OCC)c(=O)c1Cc1c(Cl)cccc1Cl` [CBK104764]: the viability at 28.5 h, 10 µM came to 94.4%.
Still for that read-out and setting: the same measure for `O=C(NCCn1nc(-c2ccco2)ccc1=O)c1cccs1` [CBK283704]: 92.5%.
Turning to `FC(F)(F)c1cc(-c2cc(N3CCC(N4CCCCC4)CC3)ncn2)cc(C(F)(F)F)c1` [CBK037692], the viability at 28.5 h, 10 µM worked out at 92.6%.
As to `Cc1cccc(Oc2ccccc2NS(=O)(=O)c2ccc3c(c2)N(CC(=O)O)C(=O)CO3)c1` [CBK295287], the viability at 28.5 h, 10 µM came out at 92.1%.
For the compound `O=C(O)COc1ccc(-c2nnn(CC(=O)O)n2)cc1` [CBK267124], the viability at 28.5 h, 10 µM is 87.6%.
